# Literature values in patent EP4545067A1, “HIGHY DOSED DERMALLY […] PREPARATION HAVING AN INCREASED DRUGLOAD IN THE TARGET CO[…] IMPROVED TREATMENT OF ECTOPARASITE INFESTATION” (Infectopharm Arzneimittel und Consilium GmbH, priority 2023, dated 2025).
# Conditions: bei 20 °C
structure (smiles),measurement,value
"CC1(C)C(C=C(Cl)Cl)C1C(=O)OCc1cccc(Oc2ccccc2)c1 (stereo not shown) [Permethrin, 3-(2,2-Dichlorethenyl)-2,2-dimethylcyclopropancarboxylsäure-(3-phenoxyphenyl)methylester]",Löslichkeit in Wasser,"0,2 mg·l^-1"
